Results taken from ChEMBL document CHEMBL5303765, “Data for DCP probe BAY-7081” (2023).

Experiments:
[1] = target: Kappa-type opioid receptor (Homo sapiens) (UniProt P41145); conditions: Compound concentration 10.0 uM
[2] = target: D(1A) dopamine receptor (Homo sapiens) (UniProt P21728); conditions: Compound concentration 10.0 uM
[3] = target: Ribosomal protein S6 kinase alpha-1 (Homo sapiens) (UniProt Q15418); experiment: RPS6KA1 SGC Tm panel (DSF); conditions: for ΔTm: Compound concentration 10.0 uM
[4] = target: Death-associated protein kinase 1 (Homo sapiens) (UniProt P53355); experiment: DAPK1 SGC Tm panel (DSF); conditions: for ΔTm: Compound concentration 10.0 uM
[5] = target: T1, Mitogen-activated protein kinase 15 (Homo sapiens) (UniProt Q8TD08); experiment: MAPK15 SGC Tm panel (DSF); conditions: for ΔTm: Compound concentration 10.0 uM
T1 sequence (whole entry): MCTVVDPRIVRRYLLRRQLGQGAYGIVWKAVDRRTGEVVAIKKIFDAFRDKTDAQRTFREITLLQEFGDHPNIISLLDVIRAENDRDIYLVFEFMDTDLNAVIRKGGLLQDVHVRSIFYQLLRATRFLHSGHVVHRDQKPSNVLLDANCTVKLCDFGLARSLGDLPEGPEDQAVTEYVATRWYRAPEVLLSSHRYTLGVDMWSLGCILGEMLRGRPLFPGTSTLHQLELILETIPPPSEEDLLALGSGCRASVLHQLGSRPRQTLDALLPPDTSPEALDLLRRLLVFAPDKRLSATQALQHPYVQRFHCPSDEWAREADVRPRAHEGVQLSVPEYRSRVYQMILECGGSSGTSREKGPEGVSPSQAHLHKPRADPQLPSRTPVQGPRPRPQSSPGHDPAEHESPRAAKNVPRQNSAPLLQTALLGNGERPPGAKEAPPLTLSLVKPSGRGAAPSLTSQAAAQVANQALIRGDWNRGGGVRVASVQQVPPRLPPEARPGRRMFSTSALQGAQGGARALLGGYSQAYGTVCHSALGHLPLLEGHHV

[6] = target: T2, Alpha-2A adrenergic receptor (Homo sapiens) (UniProt P08913); conditions: Compound concentration 10.0 uM
T2 sequence (whole entry): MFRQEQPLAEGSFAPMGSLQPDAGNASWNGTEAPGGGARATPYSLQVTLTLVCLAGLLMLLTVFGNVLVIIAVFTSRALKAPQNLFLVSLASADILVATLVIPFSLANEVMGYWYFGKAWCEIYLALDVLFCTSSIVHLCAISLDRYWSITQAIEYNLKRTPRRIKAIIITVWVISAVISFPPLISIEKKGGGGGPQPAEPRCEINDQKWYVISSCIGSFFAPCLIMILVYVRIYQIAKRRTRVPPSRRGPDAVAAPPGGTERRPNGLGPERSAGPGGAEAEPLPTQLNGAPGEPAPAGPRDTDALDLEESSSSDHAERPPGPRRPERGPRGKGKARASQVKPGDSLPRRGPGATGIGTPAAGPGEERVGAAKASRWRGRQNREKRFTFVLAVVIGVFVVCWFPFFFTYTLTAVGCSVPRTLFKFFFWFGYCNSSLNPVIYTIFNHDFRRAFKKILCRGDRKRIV

[7] = target: Muscarinic acetylcholine receptor M3 (Homo sapiens) (UniProt P20309); conditions: Compound concentration 10.0 uM
[8] = target: Ephrin type-A receptor 7 (Homo sapiens) (UniProt Q15375); experiment: EPHA7 SGC Tm panel (DSF); conditions: for ΔTm: Compound concentration 10.0 uM
[9] = target: T3, Serine/threonine-protein kinase 17A (Homo sapiens) (UniProt Q9UEE5); experiment: STK17A SGC Tm panel (DSF); conditions: for ΔTm: Compound concentration 10.0 uM
T3 sequence (whole entry): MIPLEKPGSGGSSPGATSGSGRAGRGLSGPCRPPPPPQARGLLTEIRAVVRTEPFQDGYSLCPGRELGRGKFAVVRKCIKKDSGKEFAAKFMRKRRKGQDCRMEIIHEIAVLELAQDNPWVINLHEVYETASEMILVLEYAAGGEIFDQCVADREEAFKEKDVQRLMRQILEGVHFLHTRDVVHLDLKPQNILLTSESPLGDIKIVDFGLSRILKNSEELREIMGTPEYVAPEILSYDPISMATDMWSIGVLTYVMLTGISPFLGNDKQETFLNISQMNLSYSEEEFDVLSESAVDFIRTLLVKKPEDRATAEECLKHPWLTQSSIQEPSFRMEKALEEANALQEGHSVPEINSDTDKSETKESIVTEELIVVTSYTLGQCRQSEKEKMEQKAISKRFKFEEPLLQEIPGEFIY

[10] = target: T4, Serine/threonine-protein kinase DCLK1 (Homo sapiens) (UniProt O15075); experiment: DCAMKL1 SGC Tm panel (DSF); conditions: for ΔTm: Compound concentration 10.0 uM
T4 sequence (whole entry): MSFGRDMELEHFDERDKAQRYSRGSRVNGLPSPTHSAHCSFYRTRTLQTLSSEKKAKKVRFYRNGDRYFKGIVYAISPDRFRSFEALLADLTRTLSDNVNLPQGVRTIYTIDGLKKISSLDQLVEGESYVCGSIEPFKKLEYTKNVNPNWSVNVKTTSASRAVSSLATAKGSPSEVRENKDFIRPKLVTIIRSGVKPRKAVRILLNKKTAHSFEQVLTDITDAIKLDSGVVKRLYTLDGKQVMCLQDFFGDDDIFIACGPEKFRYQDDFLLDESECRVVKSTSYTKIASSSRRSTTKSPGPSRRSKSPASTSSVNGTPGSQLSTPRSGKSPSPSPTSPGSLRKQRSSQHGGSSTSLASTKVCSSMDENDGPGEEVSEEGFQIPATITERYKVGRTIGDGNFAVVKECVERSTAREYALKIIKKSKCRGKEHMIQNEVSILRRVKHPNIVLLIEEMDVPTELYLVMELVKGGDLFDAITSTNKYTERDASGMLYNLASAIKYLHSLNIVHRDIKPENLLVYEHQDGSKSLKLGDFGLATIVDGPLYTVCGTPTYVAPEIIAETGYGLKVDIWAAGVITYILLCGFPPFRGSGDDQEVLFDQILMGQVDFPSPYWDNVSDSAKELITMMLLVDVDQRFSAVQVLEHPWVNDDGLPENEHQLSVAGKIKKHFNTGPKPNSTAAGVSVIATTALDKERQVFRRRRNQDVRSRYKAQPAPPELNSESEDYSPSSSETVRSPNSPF

[11] = target: SRSF protein kinase 3 (Homo sapiens) (UniProt Q9UPE1); experiment: MSSK1 SGC Tm panel (DSF); conditions: for ΔTm: Compound concentration 10.0 uM
[12] = target: Casein kinase I isoform delta (Homo sapiens) (UniProt P48730); experiment: CSNK1D SGC Tm panel (DSF); conditions: for ΔTm: Compound concentration 10.0 uM
Chain of Casein kinase I isoform delta (Homo sapiens) (P48730 whole entry, looked up, canonical isoform): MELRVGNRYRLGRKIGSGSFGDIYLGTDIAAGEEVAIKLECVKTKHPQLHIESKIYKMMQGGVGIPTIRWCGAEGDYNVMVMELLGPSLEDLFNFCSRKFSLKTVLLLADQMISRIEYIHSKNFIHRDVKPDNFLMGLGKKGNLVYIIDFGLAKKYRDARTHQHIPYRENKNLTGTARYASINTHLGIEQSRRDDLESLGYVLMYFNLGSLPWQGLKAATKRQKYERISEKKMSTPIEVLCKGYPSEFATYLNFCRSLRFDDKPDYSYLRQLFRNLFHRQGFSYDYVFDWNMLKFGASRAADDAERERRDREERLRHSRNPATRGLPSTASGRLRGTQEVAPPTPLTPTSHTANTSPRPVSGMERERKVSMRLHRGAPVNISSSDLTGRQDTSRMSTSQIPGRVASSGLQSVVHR

Chain of Ephrin type-A receptor 7 (Homo sapiens) (Q15375 28-998 limits assumed): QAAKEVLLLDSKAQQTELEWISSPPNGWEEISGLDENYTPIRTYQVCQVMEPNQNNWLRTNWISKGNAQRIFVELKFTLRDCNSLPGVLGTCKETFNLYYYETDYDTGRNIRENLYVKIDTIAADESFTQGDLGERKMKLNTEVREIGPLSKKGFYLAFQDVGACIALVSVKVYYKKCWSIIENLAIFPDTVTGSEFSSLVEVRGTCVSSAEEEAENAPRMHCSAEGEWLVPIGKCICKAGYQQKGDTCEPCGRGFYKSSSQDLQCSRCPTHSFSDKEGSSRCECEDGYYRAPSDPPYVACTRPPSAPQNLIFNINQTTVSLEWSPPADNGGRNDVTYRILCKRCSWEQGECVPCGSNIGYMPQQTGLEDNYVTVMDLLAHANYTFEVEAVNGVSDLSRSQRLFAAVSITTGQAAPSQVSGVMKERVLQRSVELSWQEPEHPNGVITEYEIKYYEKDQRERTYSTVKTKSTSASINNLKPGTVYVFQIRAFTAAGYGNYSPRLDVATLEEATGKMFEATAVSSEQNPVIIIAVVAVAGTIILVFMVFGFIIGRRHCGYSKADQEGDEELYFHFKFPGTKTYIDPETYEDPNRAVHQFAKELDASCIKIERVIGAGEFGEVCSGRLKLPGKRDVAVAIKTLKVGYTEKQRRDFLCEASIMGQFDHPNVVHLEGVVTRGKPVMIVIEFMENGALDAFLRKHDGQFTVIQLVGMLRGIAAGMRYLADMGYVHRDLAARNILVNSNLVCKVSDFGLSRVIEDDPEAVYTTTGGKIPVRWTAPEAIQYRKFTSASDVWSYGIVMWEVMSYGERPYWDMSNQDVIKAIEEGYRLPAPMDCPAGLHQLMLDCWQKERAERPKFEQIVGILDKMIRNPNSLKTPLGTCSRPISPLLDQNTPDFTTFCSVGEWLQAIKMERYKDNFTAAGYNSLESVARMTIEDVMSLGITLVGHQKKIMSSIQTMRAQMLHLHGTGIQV
Chain of Death-associated protein kinase 1 (Homo sapiens) (P53355 whole entry, looked up): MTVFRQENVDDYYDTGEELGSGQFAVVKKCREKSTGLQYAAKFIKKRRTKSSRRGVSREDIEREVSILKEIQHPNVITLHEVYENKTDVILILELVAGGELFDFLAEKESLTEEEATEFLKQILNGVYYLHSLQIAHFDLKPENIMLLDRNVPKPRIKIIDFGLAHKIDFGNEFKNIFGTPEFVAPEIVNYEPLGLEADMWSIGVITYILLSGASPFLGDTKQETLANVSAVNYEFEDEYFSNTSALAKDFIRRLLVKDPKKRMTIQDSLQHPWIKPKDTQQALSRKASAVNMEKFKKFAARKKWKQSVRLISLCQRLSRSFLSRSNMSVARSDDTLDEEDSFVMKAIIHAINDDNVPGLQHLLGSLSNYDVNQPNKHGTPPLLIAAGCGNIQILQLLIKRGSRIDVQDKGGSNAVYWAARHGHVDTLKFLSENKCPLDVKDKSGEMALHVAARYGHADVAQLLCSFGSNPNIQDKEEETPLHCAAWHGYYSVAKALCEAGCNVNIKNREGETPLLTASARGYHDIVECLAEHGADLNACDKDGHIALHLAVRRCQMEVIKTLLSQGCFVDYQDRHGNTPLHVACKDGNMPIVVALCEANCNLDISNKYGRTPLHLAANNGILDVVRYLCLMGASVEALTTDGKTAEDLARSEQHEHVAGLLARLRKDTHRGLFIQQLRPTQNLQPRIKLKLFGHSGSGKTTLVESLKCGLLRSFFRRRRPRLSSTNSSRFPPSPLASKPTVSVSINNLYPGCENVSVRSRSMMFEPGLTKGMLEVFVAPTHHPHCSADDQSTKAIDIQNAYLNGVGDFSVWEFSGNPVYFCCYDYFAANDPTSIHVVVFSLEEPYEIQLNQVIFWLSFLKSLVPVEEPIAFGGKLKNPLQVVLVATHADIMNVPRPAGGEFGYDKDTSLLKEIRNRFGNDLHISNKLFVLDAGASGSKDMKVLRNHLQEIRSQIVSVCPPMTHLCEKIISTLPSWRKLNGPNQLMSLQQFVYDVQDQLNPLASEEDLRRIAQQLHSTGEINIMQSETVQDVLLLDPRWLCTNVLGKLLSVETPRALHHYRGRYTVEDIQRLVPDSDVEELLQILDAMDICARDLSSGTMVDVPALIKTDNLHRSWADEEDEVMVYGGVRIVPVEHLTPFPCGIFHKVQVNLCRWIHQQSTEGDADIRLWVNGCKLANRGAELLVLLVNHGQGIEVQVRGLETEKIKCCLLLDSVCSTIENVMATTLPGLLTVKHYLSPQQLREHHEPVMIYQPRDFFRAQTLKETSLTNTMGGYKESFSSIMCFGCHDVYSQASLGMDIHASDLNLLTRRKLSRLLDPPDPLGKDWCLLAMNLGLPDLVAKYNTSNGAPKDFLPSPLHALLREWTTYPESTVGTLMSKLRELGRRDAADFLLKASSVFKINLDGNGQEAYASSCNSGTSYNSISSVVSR
Chain of Kappa-type opioid receptor (Homo sapiens) (P41145 whole entry): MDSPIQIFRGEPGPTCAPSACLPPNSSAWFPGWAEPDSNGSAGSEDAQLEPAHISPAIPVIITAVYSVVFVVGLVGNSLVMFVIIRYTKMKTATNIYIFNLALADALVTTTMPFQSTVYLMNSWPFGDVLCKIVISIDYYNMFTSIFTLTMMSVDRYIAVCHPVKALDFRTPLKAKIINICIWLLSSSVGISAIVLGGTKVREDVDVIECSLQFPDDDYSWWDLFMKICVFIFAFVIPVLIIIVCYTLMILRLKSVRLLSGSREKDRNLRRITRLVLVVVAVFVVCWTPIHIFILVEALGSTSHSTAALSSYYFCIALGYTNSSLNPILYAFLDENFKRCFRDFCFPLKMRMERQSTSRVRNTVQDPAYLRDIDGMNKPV
Chain of Muscarinic acetylcholine receptor M3 (Homo sapiens) (P20309 whole entry, looked up): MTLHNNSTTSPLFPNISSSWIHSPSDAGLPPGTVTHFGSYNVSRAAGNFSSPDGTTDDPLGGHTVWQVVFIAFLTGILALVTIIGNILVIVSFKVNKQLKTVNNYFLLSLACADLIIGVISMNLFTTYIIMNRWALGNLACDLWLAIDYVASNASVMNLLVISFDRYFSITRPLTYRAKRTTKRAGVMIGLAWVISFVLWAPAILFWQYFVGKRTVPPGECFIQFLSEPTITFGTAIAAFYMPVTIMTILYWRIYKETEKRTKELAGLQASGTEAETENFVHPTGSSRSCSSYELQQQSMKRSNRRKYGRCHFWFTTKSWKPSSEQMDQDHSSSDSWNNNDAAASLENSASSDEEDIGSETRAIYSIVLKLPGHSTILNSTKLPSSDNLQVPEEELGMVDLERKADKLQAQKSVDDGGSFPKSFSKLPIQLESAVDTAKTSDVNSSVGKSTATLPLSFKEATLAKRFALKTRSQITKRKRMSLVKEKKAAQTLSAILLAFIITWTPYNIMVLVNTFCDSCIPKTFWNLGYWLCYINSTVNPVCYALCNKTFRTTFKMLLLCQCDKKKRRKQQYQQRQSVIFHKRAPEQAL
Chain of Ribosomal protein S6 kinase alpha-1 (Homo sapiens) (Q15418 whole entry): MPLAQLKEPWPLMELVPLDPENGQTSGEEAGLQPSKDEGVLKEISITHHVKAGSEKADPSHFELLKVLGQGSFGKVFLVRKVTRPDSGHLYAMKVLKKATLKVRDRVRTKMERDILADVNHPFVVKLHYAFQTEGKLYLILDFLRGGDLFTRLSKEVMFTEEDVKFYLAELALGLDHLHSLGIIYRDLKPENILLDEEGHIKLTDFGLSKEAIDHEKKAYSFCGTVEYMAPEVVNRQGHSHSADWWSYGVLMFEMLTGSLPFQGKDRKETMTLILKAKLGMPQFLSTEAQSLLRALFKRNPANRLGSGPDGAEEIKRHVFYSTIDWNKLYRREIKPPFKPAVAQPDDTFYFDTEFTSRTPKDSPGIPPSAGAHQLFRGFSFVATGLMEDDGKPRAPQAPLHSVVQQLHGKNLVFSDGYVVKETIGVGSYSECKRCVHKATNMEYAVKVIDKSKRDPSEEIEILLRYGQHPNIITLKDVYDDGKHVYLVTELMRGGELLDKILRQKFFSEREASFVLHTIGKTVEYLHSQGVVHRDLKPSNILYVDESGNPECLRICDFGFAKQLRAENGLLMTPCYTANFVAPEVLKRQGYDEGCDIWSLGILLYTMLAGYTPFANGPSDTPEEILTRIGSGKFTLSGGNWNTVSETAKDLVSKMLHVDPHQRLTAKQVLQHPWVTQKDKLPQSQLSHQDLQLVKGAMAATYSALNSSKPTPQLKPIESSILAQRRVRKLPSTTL
Chain of D(1A) dopamine receptor (Homo sapiens) (P21728 whole entry): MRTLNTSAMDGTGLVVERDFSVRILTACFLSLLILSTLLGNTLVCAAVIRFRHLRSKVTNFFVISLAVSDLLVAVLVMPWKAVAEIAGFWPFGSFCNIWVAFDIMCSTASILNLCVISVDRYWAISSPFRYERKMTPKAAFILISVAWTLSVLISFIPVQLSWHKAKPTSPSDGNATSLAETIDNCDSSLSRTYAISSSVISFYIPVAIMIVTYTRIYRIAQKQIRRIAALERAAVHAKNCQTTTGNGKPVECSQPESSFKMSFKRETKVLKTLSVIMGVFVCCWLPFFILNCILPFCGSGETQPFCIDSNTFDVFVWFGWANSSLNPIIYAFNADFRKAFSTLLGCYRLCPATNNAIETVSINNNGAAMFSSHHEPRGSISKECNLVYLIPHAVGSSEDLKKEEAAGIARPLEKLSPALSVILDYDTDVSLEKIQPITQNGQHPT

SMILES	inhibition [1] [%]	inhibition [2] [%]	delta Tm Staurosporine positive control [3]	ΔTm [3]	delta Tm Staurosporine positive control [4]	ΔTm [4]	delta Tm Staurosporine positive control [5]	ΔTm [5]	inhibition [6] [%]	inhibition [7] [%]	delta Tm Staurosporine positive control [8]	ΔTm [8]	delta Tm Staurosporine positive control [9]	ΔTm [9]	delta Tm Staurosporine positive control [10]	ΔTm [10]	delta Tm Staurosporine positive control [11]	ΔTm [11]	delta Tm Staurosporine positive control [12]	ΔTm [12]
CCC[C@H]1CNCc2c1[nH]c(=O)c(C#N)c2N1CCC2(CC1)CC2	34.3	-2.37	4.78	-0.0815	9.84	0.2	16.4	-0.258	5.64	-1	12.1	-0.592	11.8	-1.05	12.7	-1.21	4.52	-0.144	2.05	-0.142
CCC[C@@H]1CNCc2c1[nH]c(=O)c(C#N)c2N1CCC2(CC1)CC2	29.3	11	4.78	-0.0442	9.84	-0.225	16.4	0.0332	9.55	3.32	12.1	-0.583	11.8	-1.01	12.7	-1.16	4.52	-0.164	2.05	0.052
